Data reported in PMC7066135, “The lipoprotein Pal stabilises the bacterial outer membrane during constriction by a mobilisation-and-capture mechanism” (Nature Communications, 2020).
Ends that are not written are not given here. Peptide text beside a SMILES is read from it. * marks the point of attachment. FITC = O=C1OC2(c3ccc(O)cc3Oc3cc(O)ccc32)c2ccc(NC(=S)*)cc21

Legend:
[1] = biological target: E. coli TolB22-33 peptide; assay: ITC
[2] = biological target: T1, TolA224-344 lacking its short C-terminal α-helix (Pseudomonas aeruginosa, UniProt P50600); assay: Fluorescence anisotropy titration, FITC-labelled TolB peptide, helix-truncated TolA; assay type: binding, P. aeruginosa; conditions: versus wild-type TolA224-347
T1 construct: Open symbols, TolA224-344 lacking its short; His-tagged Im9 (fusion partner, factor Xa site) (N); made in house; host or cells: E. coli BL21 (DE3)
Description: Fluorescence anisotropy experiments were used to observe the change in overall anisotropy of P. aeruginosa TolB^22–34 fluorescein isothiocyanate (FITC) in complex with the C-terminal domain of TolA. A titration curve was recorded using 40 μl fractions in a 96-well, black absorbent, 100 μl plate, n = 3.
Experiments were carried out using either a CLARIOstar plate reader or a Fluoromax- 4 spectrofluorimeter (Horiba JobinYvon). Titrations were carried out between 0 and 1.2 mM TolA. […] FITC excitation wavelength used was 495 nm with an emission wavelength at 519 nm. All experiments were conducted in 50 mM Tris 100 mM NaCl pH 7.0 and used light-blocking tubes to minimize quenching.
(§1) Data were fitted using the manufac-turer ’s software assuming a 1:1 binding model, validated by the resulting structure for the complex. From three independent measurements, average values for ΔH […] (±0.24 standard deviation (SD)) kcal.mol-1, ΔS +11.8 (±2.14 SD) cal.K-1 […]
(§2) form of an isolated peptide. b, Binding of TolB22-34 to the C-terminal domain of 15N-labelled TolA224-347 from P. aeruginosa followed by changes in 1H, 15N-HSQC spectra, >80% of all TolA peaks were perturbed by TolB22-33 binding. Every peak was […]
(§3) and free (32%) TolA. […]
(§4) five-fold weaker binding than the E. coli complex. c, Fluorescence anisotropy binding curves for P. aeruginosa TolB22-33 binding the C-terminal domain of TolA. […]

[3] = biological target: T2, C-terminal domain of wild-type TolA (Pseudomonas aeruginosa, UniProt P50600); assay: Stopped-flow fluorescence anisotropy, wild-type TolA; assay type: binding, P. aeruginosa
T2 construct: The C-terminal domain of Pseudomonas aeruginosa TolA (TolA^224–347) and its derivatives; His-tagged Im9 (fusion partner, factor Xa site) (N, cleaved yes); made in house; host or cells: E. coli BL21 (DE3)
Description: (§5) Experiments were conducted on an Applied Photophysics SX20 instrument set up for 1:1 single mixing and thermostated using a circulating water bath at 25 °C. All stopped-flow experiments were carried out in 50 mM Tris pH 7.0, 100 mM NaCl and under pseudo-first-order conditions. […] Monochromator entrance and exit slits were set to 2 mm. A total of 4000–10,000 data points were collected for each reaction. At least four anisotropy traces were collected for each reaction and averaged for each time-dependence fit. All anisotropy traces were fit to a single exponential rate equation. Each reaction concentration was collected in triplicate and validated using recombinant protein from different protein purifications. SigmaPlot was used for linear regression analysis to fit the dependence of kobs on the varied concentration of TolA. Titrations were performed at increasing concentration of protein relative to a constant concentration of peptide at 1 μM. Experiments were typically performed with 4–10-s data collection periods.
(§6) of mutations in vitro and in vivo. All in vitro measurements used the P. aeruginosa complex while all in vivo assays
(§7) binding a 100-fold excess of the C-terminal domain of wild-type TolA (red) and TolA with its C-terminal α-helix removed
(§8) tion yielding an observed rate (kobs). […]

[4] = biological target: T3, TolA with its C-terminal α-helix removed (Pseudomonas aeruginosa, UniProt P50600); assay: Stopped-flow fluorescence anisotropy, helix-truncated TolA; assay type: binding, P. aeruginosa
T3 construct: Open symbols, TolA224-344 lacking its short; His-tagged Im9 (fusion partner, factor Xa site) (N); made in house; host or cells: E. coli BL21 (DE3)
Description: as §5, §6, §7, §8

[5] = biological target: T4, TolA224-347 (Pseudomonas aeruginosa, UniProt P50600); assay: NMR titration (1H,15N-HSQC), TolB peptide binding 15N-labelled TolA; set-up: species or system P. aeruginosa; conditions: 1H,15N-HSQC spectra; slow chemical exchange
T4 construct: The C-terminal domain of Pseudomonas aeruginosa TolA (TolA^224–347) and its derivatives; His-tagged Im9 (fusion partner, factor Xa site) (N, cleaved yes); made in house; host or cells: E. coli BL21 (DE3)
Description: NMR experiments were carried out using spectrometers operating at ^1H frequencies ranging from 500 to 950 MHz. The spectrometers were equipped with Oxford Instruments magnets and home-built triple-resonance pulsed-field gradient probes (600, 750 and 950 MHz) or with Bruker Avance consoles and TCI CryoProbes (500 and 600 MHz). NMR data were acquired using either GE/Omega software using pulse sequences written in-house, or Topspin software and pulse sequences in the Topspin libraries from Bruker Biospin. All data processing was conducted using NMRPipe[49]. Processed spectra were visualized and assigned using the CCPN software suite. All NMR data were collected at 20 °C.
as §1, §2, §3, §4

[6] = system: Pal-mCherry in E. coli cells; assay: Fluorescence recovery after photobleaching (FRAP) of Pal-mCherry; assay type: cell-based; conditions: non-dividing cells, average from 30 cells
Description: Overnight supplemented M9-glucose (2 mM MgSO4, 0.1 mM CaCl2, 0.4% (w/v) D-glucose) cultures were diluted in fresh medium with appropriate antibiotics and IPTG for strains expressing TolA from plasmids. Cultures were grown at 37 °C to OD600 0.3. Cells were centrifuged at 7000 × g for 1 min, resuspended in 1 ml of fresh media and treated with CCCP (0.1 mM, RT for 5 min, Sigma #C2759) for PMF decoupling, sodium azide (50 µg ml^−1, RT for 30 min, Sigma #S2002) for ATPase inhibition or chloramphenicol (30 µg ml^−1, 37 °C for 30 min, Sigma #C0378) for translation inhibition. […]
Microscopy was performed on a Zeiss LSM 880/Axio Examiner Z1 motorised upright laser scanning microscope equipped with Argon multiline 458/488/514 nm (25 mW), and HeNe 561 nm (1 mW) and ×63 oil-immersion objective (Zeiss, NA 1.4) set to 37 °C. […] Two images were acquired before bleaching and ten images, with a time interval of 1 min, recorded after bleaching using an automatic time-course function. […] For all fluorescent images, corresponding differential interference contrast (DIC) images were recorded using transmitted light. All images were recorded using Zeiss Zen 2011 software.
All images were analysed using ImageJ software. Fluorescence distribution along x-axis of cells was determined by the plot profile function with a line width of 4 points for TIRFM images and 40 or 80 for FRAP images. […]

[7] = biological target: P. aeruginosa TolB^22–34 fluorescein isothiocyanate (FITC) (P. aeruginosa) (UniProt P50601); assay: FP
[8] = biological target: Pal (Escherichia coli) (UniProt P0A912); conditions: cited from earlier work
Sequence of Pal (Escherichia coli) (P0A912 22-173): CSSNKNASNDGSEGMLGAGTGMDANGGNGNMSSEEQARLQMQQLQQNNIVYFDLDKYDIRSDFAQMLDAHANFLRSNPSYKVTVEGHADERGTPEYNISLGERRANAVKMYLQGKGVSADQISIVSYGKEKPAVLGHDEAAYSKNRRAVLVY

[9] = biological target: TolA (Escherichia coli) (UniProt P19934); conditions: cited from earlier work
Sequence of TolA (Escherichia coli) (P19934 whole entry): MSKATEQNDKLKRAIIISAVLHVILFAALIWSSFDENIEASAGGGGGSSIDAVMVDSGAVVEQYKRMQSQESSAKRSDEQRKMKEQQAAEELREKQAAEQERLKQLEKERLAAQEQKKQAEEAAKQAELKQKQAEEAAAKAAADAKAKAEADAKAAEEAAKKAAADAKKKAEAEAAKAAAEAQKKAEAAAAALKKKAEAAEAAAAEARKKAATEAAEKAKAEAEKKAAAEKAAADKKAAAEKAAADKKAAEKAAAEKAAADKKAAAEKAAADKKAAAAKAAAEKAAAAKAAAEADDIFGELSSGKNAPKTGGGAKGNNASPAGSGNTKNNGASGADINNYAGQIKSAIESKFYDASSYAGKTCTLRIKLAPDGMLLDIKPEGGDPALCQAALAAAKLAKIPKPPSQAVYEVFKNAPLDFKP

[10] = system: TolA-GFP at the divisome; assay: 3D-SIM of TolA-GFP recruitment to the divisome; assay type: cell-based, E. coli; conditions: TolB I25A, I27A background versus wild-type TolB, expressed from plasmid; n = 30; Mann-Whitney U and t test
From the text: Live bacteria were mounted between an agarose pad and a coverslip. Imaging was processed at room temperature with a ×60, NA 1.42 oil objective on a Deltavision OMX V3 Blaze (GE) equipped with a 488 laser. Image stacks of several μm thickness were taken with 0.125 μm z-steps and 15 images (three angles and five phases per angle) per z-section and a 3D-structured illumination with stripe separation of 213 nm. Laser power was set at 10% to scan the sample over 4 µm thickness (32 slices) without too much photobleaching. Image stacks were reconstructed using Deltavision softWoRx 6.1.1 software with a Wiener filter of 0.002 using wavelength-specific experimentally determined OTF functions (see ref. [37]). […] Distribution of fluorescence intensity along the x-axis of bacteria was determined using a custom script implemented in MATLAB (version 2012a, MathWorks) (see ref. [40]). […] Intensity along the selected bacteria was measured 11 times between the bacterial end-points, each at a uniformly spaced offset from the bacterial long axis. The mean profile was calculated and normalized to the range 0–100 for comparison between bacteria. Diameter measurements correspond to the height of ring, calculated automatically through ImageJ software from each reconstructed and filtered image. A total of 30 cells were analysed per condition, in triplicate. […]

[11] = biological target: T5, C-terminal domain of Pseudomonas aeruginosa TolA (TolA^224–347) (Pseudomonas aeruginosa, UniProt P50600 224-347); assay: NMR
T5 chain: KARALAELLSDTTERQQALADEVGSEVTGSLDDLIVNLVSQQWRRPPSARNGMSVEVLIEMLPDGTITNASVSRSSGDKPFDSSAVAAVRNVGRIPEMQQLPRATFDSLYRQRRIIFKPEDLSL

[12] = biological target: T5, C-terminal domain of Pseudomonas …; assay: FP

**Q.** Which Kd [1] does the source give for E. coli TolA C-terminal domain here?
**A.** 42 µM

**Q.** For `CC[C@H](C)[C@H](NC(=O)[C@@H](NC(=O)[C@H](CC(C)C)NC(=O)[C@@H]1CCCN1C(=O)[C@H](CC(=O)O)NC(=O)[C@H](C)N)C(C)C)C(=O)N[C@@H](CO)C(=O)N[C@@H](CO)C(=O)NCC(=O)N[C@@H](CC(N)=O)C(=O)N[C@@H](CC(=O)O)C(=O)N[C@@H](CCCNC(=N)N)C(=O)N[C@@H](CCCCNC(=S)Nc1ccc2c(c1)C(=O)OC21c2ccc(O)cc2Oc2cc(O)ccc21)C(N)=O` [P. aeruginosa TolB22-33] (H-ADPLVISSGNDRK(FITC)-NH2; N-terminus and C-terminus assumed), which “improvement of TolB binding on deletion of the TolA helix” value [2] is on record?
**A.** three-fold

**Q.** And the koff [3]?
**A.** 0.9 s⁻¹

**Q.** What about the koff [4] of the same molecule?
**A.** 1.4 s⁻¹

**Q.** What about the “kon relative to wild-type complex” value ([4]; helix truncation versus wild-type TolA) of the same molecule?
**A.** three-fold faster

**Q.** For ADPLVISSGNDRA-NH2 [TolB22-34], which “TolA peaks perturbed by TolB peptide binding” value [5] is on record?
**A.** > 80%

**Q.** Which “effect on FRAP recovery” value ([6]; sodium azide 50 µg/µl) does the source give for `[N-]=[N+]=[N-].[Na+]` [sodium azide] here?
**A.** measurable effect

**Q.** For “TolA224-344 (P. aeruginosa, lacking C-terminal α-helix)”, which Kd [7] is on record?
**A.** 86 µM

**Q.** Which results are given for TolB (from UniProt P0A855)?
**A.** Kd [8]: 0.03 µM; Kd [9]: 40 µM

**Q.** With `N#CC(C#N)=NNc1cccc(Cl)c1` [CCCP] as the molecule, how does the “effect on FRAP recovery” value ([6]; CCCP 0.1 mM) read?
**A.** measurable effect

**Q.** With TolB I25A, I27A as the molecule, how does the “divisome recruitment of TolA-GFP (intensity distribution, ring diameter)” value [10] read?
**A.** no significant difference

B1: P. aeruginosa TolB^22–34 peptide (the N-terminus of secreted TolB; the TolA box) (peptide)
peptide: ADPLVISSGNDRA-NH2
**Q.** Which Kd [11] does the source give for B1 here?
**A.** 220 µM

B2: P. aeruginosa TolB^22–34 fluorescein isothiocyanate (FITC) (peptide)
peptide: ADPLVISSGNDRAK(FITC)
**Q.** With B2 as the molecule, how does the Kd [12] read?
**A.** 250 µM
